Reference: patent US20090215893A1, “Parakeratosis inhibitor, pore-shrinking agent,or rough skin preventing/ameliorating agent, and external composition for skin” (Shiseido Company Ltd, priority 2005, published 2009)

How the values were obtained:
[1] = tested on: back of hairless mice (HR-1), 10 mass % oleic acid applied; assay: Inhibiting effect against rough skin induced by oleic acid application (transepidermal water loss); type: in vivo; design: ΔTEWL value: unit not given here; conditions: for ΔTEWL value: sample 3 mass %, three days, average of four animals, rough skin worse as value increases, control 12.0; for ΔTEWL value compared with the control aqueous solution / rough skin preventing/ameliorating effect: summary of Table 3, concentrations as in Table 3
Procedure: In order to investigate the inhibiting effect of α-amino acid derivatives and salts thereof against rough skin induced by oleic acid application, the transepidermal water loss (TEWL value) before and after application was measured, the difference was compared with the control (control aqueous solution), and the effect was determined. Sample preparation and the application method were in accordance with Example 1. The TEWL was determined using the TM210 TEWA Meter (Courage+Khazaka Electronic GmBH).
100 μL of 10 mass % oleic acid (solvent: ethanol) was applied to the back of hairless mice (HR-1, four mice per group). Then a sample solution (α-amino acid derivatives, and the like) was applied 100 μL at a time. This procedure was continued for three days. The following day, the TEWL value of the back was determined and the values of the four animals were averaged. Rough skin became worse as the ΔTEWL value increased.

[2] = tested on: pores of the cheeks of healthy human males; assay: Human pore-shrinking effect (replica assessment of cheek pores); type: in vivo; conditions: for Replica assessment (average of n = 5): sample 3 mass %, twice a day for one month, pore size rating 1-13, after application minus before application, control 0.3; for pore-shrinking effect: summary of Table 2, concentrations as in Table 2
Procedure: An experiment was conducted whereby a sample was applied twice a day for one month to the cheeks of healthy human males in groups of 5 men each. Aqueous solutions (containing 15 mass % of ethanol) of 3 mass % of the α-amino acid derivative or a salt thereof were prepared as the evaluation sample. The pH was regulated by hydrochloric acid or sodium hydroxide so as to be 7.0 to 7.5. When sample solubility was low, the solution was prepared accordingly. The control was an aqueous 15% ethanol solution. The sample aqueous solution and control aqueous solution were applied to one half of the face at a time.
A replica was collected before and after continuous application, and changes in the shape of the pores at the same site were observed using a three-dimensional laser scanning microscope. The size of the pores was macroscopically evaluated in 13 steps of 1 through 13 (with the pores becoming larger as the numbers became larger), the difference in the ratings before and after application (after application-before application) was calculated, and the efficacy of each sample was studied using this difference as the replica assessment.

[3] = tested on: cheek of a panel of 20 women; assay: Sensory irritation tests; type: in vivo, human; conditions: for Evaluation (sensory irritation, class of average rating): sample 3 mass %, 1 mL on cheek, evaluated for ten minutes, 20 women; for sensory irritation: summary of Table 4, β-alanine at 3%
Procedure: 1 mL of a control aqueous solution and the sample aqueous solution prepared in Example 1 were applied using a cotton swab to the left or right cheek, respectively, of a panel of 20 women, the irritating sensation was evaluated every 30 seconds for ten minutes beginning immediately after application, and a final evaluation was reported. The evaluation of the irritating sensation was based on the following four steps of rating criteria, the average rating was calculated, and the average was classified by the following criteria.
3: Discontinued because of extremely strong irritation, such as stinging sensation, burning sensation, tickling sensation, itching, and the like.
2: Intolerable strong irritation, such as stinging sensation, burning sensation, tickling sensation, itching, and the like.
1: Tolerable with only slight stinging sensation, burning sensation, tickling sensation, itching, and the like.
0: Not particularly irritating.
A: average rating of less than 0.2
B: average rating of 0.2 to less than 1.0
C: average rating of 1.0 to less than 2.0
D: average rating of 2.0 or greater

[4] = tested on: back of a hairless mouse (HR-1), 10 mass % oleic acid applied; assay: Parakeratosis-inhibiting effect tests: oleic acid applied to hairless mouse back, macroscopic rough skin evaluation and parakeratosis value; type: in vivo; conditions: for Macroscopic evaluation (average of four animals) / Parakeratosis value (average of four animals): sample 3 mass %; for Macroscopic evaluation (average of four animals): 100 μL after oleic acid, three days, rough skin score 0.0 (no redness) to 2.0 (control); for Parakeratosis value (average of four animals): tape-stripped stratum corneum, hematoxylin, range 1.0 to 3.0, higher = parakeratosis advanced, control 2.0; for parakeratosis value / parakeratosis-inhibiting effect / rough skin preventing effect, based on stratum corneum peeling and redness: summary of Table 1, concentrations as in Table 1
Procedure: Aqueous solutions (containing 30 mass % of ethanol) of primarily 3 mass % of an α-amino acid derivative or salt thereof were prepared as the evaluation sample. The pH was regulated by hydrochloric acid or sodium hydroxide so as to be 7.0 to 7.5. When sample solubility was low, the solution was prepared accordingly.
100 μL of 10 mass % oleic acid solution (solvent: ethanol) were applied to the back of a hairless mouse (HR-1; Hoshino Laboratory Animals). Then the sample solution (α-amino acid derivative, and the like) was applied 100 μL at a time. This procedure was continued for three days. […] The status of the skin was evaluated in 0.25-point intervals, with skin where the control (control aqueous solution) had been applied being 2.0 and skin where there was no redness being 0.0. At the same time, the stratum corneum at the back of the hairless mouse was peeled off with tape, the nuclei were stained by hematoxylin, and the degree of parakeratosis was observed and evaluated by a parakeratosis value within a range of 1.0 to 3.0 (in 0.25 increments).

Row | Compound | ΔTEWL value [1] | ΔTEWL value compared with the control aqueous solution / rough skin preventing/ameliorating effect [1] | Replica assessment (average of n = 5) [2] | pore-shrinking effect [2] | Evaluation (sensory irritation, class of average rating) [3] | sensory irritation [3] | Macroscopic evaluation (average of four animals) [4] | Parakeratosis value (average of four animals) [4] | parakeratosis value / parakeratosis-inhibiting effect [4] | rough skin preventing effect, based on stratum corneum peeling and redness [4]
1 | C[C@H](NC1CCCCC1)C(=O)O [N-cyclohexyl-L-alanine] | 7.1 | significantly lower | −1.2 | seen | A (average rating of less than 0.2) | no problems | 1.4 | 1.3 | reduced | seen
2 | O=C(O)[C@H](CO)NC1CCCCC1 [N-cyclohexyl-L-serine] | 7.0 | significantly lower | −1.4 | seen | A (average rating of less than 0.2) | no problems | 1.3 | 1.2 | reduced | seen
3 | O=C(O)CNC1CCCCC1 [N-cyclohexyl-glycine] | 6.4 | significantly lower | −1.5 | seen | A (average rating of less than 0.2) | no problems | 1.2 | 1.1 | reduced | seen
4 | CCN[C@H](C)C(=O)O [N-ethyl-D-alanine] | 8.3 | significantly lower | −0.5 | seen | A (average rating of less than 0.2) | no problems | 1.6 | 1.7 | reduced | seen
5 | CCN[C@H](CO)C(=O)O [N-ethyl-D-serine] | 7.9 | significantly lower | −1.2 | seen | A (average rating of less than 0.2) | no problems | 1.3 | 1.3 | reduced | seen
6 | CCN[C@@H](C)C(=O)O [N-ethyl-L-alanine] | 8.4 | significantly lower | −0.4 | seen | A (average rating of less than 0.2) | no problems | 1.5 | 1.4 | reduced | seen
7 | CCN[C@@H](CO)C(=O)O [N-ethyl-L-serine] | 7.7 | significantly lower | −1.2 | seen | A (average rating of less than 0.2) | no problems | 1.4 | 1.4 | reduced | seen
8 | CN[C@H](C)C(=O)O [N-methyl-D-alanine] | 8.2 | significantly lower | −0.7 | seen | A (average rating of less than 0.2) | no problems | 1.2 | 1.3 | reduced | seen
9 | CN[C@H](CO)C(=O)O [N-methyl-D-serine] | 8.0 | significantly lower | −1.5 | seen | A (average rating of less than 0.2) | no problems | 1.4 | 1.5 | reduced | seen
10 | CN[C@@H](C)C(=O)O [N-methyl-L-alanine] | 8.3 | significantly lower | −0.8 | seen | A (average rating of less than 0.2) | no problems | 1.4 | 1.4 | reduced | seen
11 | CN[C@@H](CO)C(=O)O [N-methyl-L-serine] | 7.9 | significantly lower | −1.2 | seen | A (average rating of less than 0.2) | no problems | 1.3 | 1.2 | reduced | seen
